# According to US12492164B2, “Fluorine substituted cyclohexene analogues of gamma-aminobutyric acid (GABA)” (Northwestern University, priority 2019, dated 2025):
# Structures can show the parent of a compound that is named as a salt. Where two headings read alike, the source gives them in different places.
# Columns and labels:
# [1] = target: T1, GABA-AT (Sus scrofa, UniProt P80147); assay: Coupled enzyme assay, time-dependent inactivation of GABA-AT; format: biochemical, pig
# T1 construct: GABA-AT was isolated from pig brains and purified according to a literature procedure; from tissue; host or cells: pig brain
# T1 sequence (P80147 29-500): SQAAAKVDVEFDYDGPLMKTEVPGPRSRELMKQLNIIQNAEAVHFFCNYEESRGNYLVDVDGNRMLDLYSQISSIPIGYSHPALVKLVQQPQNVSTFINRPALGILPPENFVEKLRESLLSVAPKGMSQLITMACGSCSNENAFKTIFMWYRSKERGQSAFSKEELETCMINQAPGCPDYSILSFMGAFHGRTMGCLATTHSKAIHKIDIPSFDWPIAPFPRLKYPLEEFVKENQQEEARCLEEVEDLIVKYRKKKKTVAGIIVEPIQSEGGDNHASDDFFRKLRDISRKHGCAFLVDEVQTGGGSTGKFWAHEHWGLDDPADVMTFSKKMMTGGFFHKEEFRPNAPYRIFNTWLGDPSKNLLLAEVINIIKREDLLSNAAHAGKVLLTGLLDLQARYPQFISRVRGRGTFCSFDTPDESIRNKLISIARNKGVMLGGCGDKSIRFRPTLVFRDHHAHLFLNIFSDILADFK
# Protocol: (§1) Kinetic Studies of Fluorine-Substituted Cyclohexene Analogues.
# (§2) hOAT and PYCR1 were expressed, grown, and purified according to literature procedures.4, 5 GABA-AT was isolated from pig brains and purified according to a literature procedure.6 Coupled enzyme assays for GABA-AT, hOAT, Ala-AT, and Asp-AT were carried out according to previous procedures.7, 8
# [2] = target: T2, hOAT (Homo sapiens, UniProt P04181); assay: Coupled enzyme assay, time-dependent inactivation of hOAT; format: biochemical
# T2 construct: made in house
# T2 sequence (P04181 26-439): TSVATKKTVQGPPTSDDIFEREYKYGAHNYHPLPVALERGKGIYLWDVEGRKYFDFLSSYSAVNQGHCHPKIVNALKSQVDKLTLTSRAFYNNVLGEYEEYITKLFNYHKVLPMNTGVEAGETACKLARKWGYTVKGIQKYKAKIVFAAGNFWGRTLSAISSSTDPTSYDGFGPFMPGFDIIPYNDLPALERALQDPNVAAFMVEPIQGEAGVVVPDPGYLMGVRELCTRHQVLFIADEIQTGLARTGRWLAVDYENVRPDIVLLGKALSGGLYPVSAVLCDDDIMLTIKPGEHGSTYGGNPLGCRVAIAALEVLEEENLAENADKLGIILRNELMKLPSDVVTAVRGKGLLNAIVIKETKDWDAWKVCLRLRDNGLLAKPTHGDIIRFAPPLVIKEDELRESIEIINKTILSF
# Protocol: as §1, §2
# [3] = test system: HCC tumor; conditions: doses of 0.1 and 1.0 mg/kg; cited from earlier work
# [4] = GABA-AT, pH 8.0, bound: KI is greater than kobs (max)/ratio (footnote b)
# [5] = GABA-AT, pH 8.0, bound: kinact is greater than maximum kobs in time-dependent assay (footnote b)
# [6] = read-out: kinact/KI (converted)
# [7] = inactivation of GABA-AT, pH 8.0
# [8] = inactivation of GABA-AT, pH 8.0, read-out: kinact/KI (converted)
Structure (SMILES),"Ki [1, 4] [µM]","kinact [1, 5] [s⁻¹]",kinact/KI ([1]; pH 8) [M⁻¹ s⁻¹],Ki [2] [µM],kinact ([2]; read-out: kinact (converted)) [s⁻¹],"kinact/KI [2, 6] [M⁻¹ s⁻¹]","Ki [1, 7] [µM]","kinact [1, 7] [s⁻¹]","kinact/KI [1, 8] [M⁻¹ s⁻¹]","Ki ([1]; GABA-AT, pH 6.5) [µM]","kinact ([1]; GABA-AT, pH 6.5) [s⁻¹]","kinact/KI ([1]; GABA-AT, pH 6.5, read-out: kinact/KI (converted)) [M⁻¹ s⁻¹]","kinact/KI ([1]; GABA-AT, pH 8.0, ratio determined by the slope of kobs vs [I] (footnote b), read-out: kinact/KI (converted)) [M⁻¹ s⁻¹]",in vivo HCC tumor growth [3],α-fetoprotein levels (a biomarker for HCC) [3],kinact [2] [s⁻¹],kinact/KI [2] [M⁻¹ s⁻¹]
"N[C@H]1CC(C(=O)O)=CCC1(F)F [Compound 11, (S)-5-Amino-4,4-difluorocyclohex-1-ene-1-carboxylic acid hydrochloride]",> 9630,> 0.00483,0.5,540 ± 17,0.00138,2.5,–,–,–,–,–,–,–,–,–,–,–
"N[C@H]1C=C(C(=O)O)CC[C@@H]1F [Compound 8, (3S,4S)-3-Amino-4-fluorocyclohex-1-ene-1-carboxylic acid hydrochloride]",–,–,–,31 ± 7,0.00133,42.7,2530 ± 710,0.00163,0.65,–,–,–,–,–,–,–,–
"N[C@H]1C=C(C(=O)O)CCC1(F)F [Compound 9, (S)-3-Amino-4,4-difluorocyclohex-1-ene-1-carboxylic acid hydrochloride]",> 120,> 0.003,–,2.3 ± 0.7,0.0008,339,–,–,–,1100,0.00333,3,25.3,–,–,–,–
"N[C@H]1CC(C(=O)O)=CC[C@@H]1F [Compound 10, (4S,5S)-5-Amino-4-fluorocyclohex-1-ene-1-carboxylic acid hydrochloride]",–,–,–,4380 ± 860,0.00125,0.283,4280 ± 2050,0.000467,0.108,–,–,–,–,–,–,–,–
"N[C@H]1C[C@@H](C(=O)O)CC1=C(C(F)(F)F)C(F)(F)F [Compound 7, (1S,3S)-3-Amino-4-(hexafluoropropan-2-ylidenyl)cyclopentane-1-carboxylic Acid, reference compound]",–,–,–,65 ± 10,–,–,–,–,–,–,–,–,–,suppressed,dramatically reduced,0.00095 ± 5e-05,14.5
"N[C@H]1C[C@@H](C(=O)O)C[C@@H]1F [Compound 1, (1R,3S,4S)-3-amino-4-fluorocyclopentane-1-carboxylic acid, reference compound]",–,–,–,–,–,1,78 ± 40,0.000283,3.67,–,–,–,–,–,–,–,–
